# Results: PubChem BioAssay AID1963851 (Molecular Pharmacology Branch, DTP, NCI, 2024)
# Tested on: 188146-221-R-J1-PDC complex spheroid viability
# Assay: Anticancer human tumor 188146-221-R-J1-PDC patient-derived colon adenocarcinoma cell line growth inhibition [POLQ]
# Details: for IC50: curve of first compound; for viability, T/C: stronger effect = lower value
# In short: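 PDC + HUVEC + MSC complex spheroids; POLQ inhibitors ± partner drugs; top conc. at/near clinical Cmax, else 10 microM (SN-38 1 microM), half-log dilutions; 37 degrees C, 5% CO2.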
# [1] = second compound 0.0316 µM, first compound 0.0316 µM
# [2] = second compound 0.0316 µM, first compound 0.1 µM
# [3] = second compound 0.0316 µM, first compound 0.316 µM
# [4] = second compound 0.0316 µM, first compound 1 µM
# [5] = second compound 0.0316 µM, first compound 3.16 µM
# [6] = second compound 0.0316 µM, first compound 10 µM
# [7] = second compound 0.1 µM, first compound 0.0316 µM
# [8] = second compound 0.1 µM, first compound 0.1 µM
# [9] = second compound 0.1 µM, first compound 0.316 µM
# [10] = second compound 0.1 µM, first compound 1 µM
# [11] = second compound 0.1 µM, first compound 3.16 µM
# [12] = second compound 0.1 µM, first compound 10 µM
# [13] = second compound 0.316 µM, first compound 0.0316 µM
# [14] = second compound 0.316 µM, first compound 0.1 µM
# [15] = second compound 0.316 µM, first compound 0.316 µM
# [16] = second compound 0.316 µM, first compound 1 µM
# [17] = second compound 0.316 µM, first compound 3.16 µM
# [18] = second compound 0.316 µM, first compound 10 µM
# [19] = second compound 1 µM, first compound 0.0316 µM
# [20] = second compound 1 µM, first compound 0.1 µM
# [21] = second compound 1 µM, first compound 0.316 µM
# [22] = second compound 1 µM, first compound 1 µM
# [23] = second compound 1 µM, first compound 3.16 µM
# [24] = second compound 1 µM, first compound 10 µM
# [25] = second compound 3.16 µM, first compound 0.0316 µM
# [26] = second compound 3.16 µM, first compound 0.1 µM
# [27] = second compound 3.16 µM, first compound 0.316 µM
# [28] = second compound 3.16 µM, first compound 1 µM
# [29] = second compound 3.16 µM, first compound 3.16 µM
# [30] = second compound 3.16 µM, first compound 10 µM
# [31] = second compound 10 µM, first compound 0.0316 µM
# [32] = second compound 10 µM, first compound 0.1 µM
# [33] = second compound 10 µM, first compound 0.316 µM
# [34] = second compound 10 µM, first compound 1 µM
# [35] = second compound 10 µM, first compound 3.16 µM
# [36] = second compound 10 µM, first compound 10 µM
# [37] = second compound 0.0316 µM, first compound 0.00316 µM
# [38] = second compound 0.0316 µM, first compound 0.01 µM
# [39] = second compound 0.1 µM, first compound 0.00316 µM
# [40] = second compound 0.1 µM, first compound 0.01 µM
# [41] = second compound 0.316 µM, first compound 0.00316 µM
# [42] = second compound 0.316 µM, first compound 0.01 µM
# [43] = second compound 1 µM, first compound 0.00316 µM
# [44] = second compound 1 µM, first compound 0.01 µM
# [45] = second compound 3.16 µM, first compound 0.00316 µM
# [46] = second compound 3.16 µM, first compound 0.01 µM
# [47] = second compound 10 µM, first compound 0.00316 µM
# [48] = second compound 10 µM, first compound 0.01 µM
# 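Further: spheroids exposed to compounds for seven days.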
# 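Wherever viability, T/C is given: 100% = DMSO vehicle control viability.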
structure (smiles),measurement,setting,value
COc1cccc2c1C(=O)c1c(O)c3c(c(O)c1C2=O)CC(O)(C(=O)CO)CC3OC1CC(N)C(O)C(C)O1 (stereo not drawn) + Nc1ccc(C#CCN(C(=O)Cc2ncc(C(F)(F)F)cc2C(F)(F)F)c2ccc(F)cc2)nn1,IC50,second compound 0.0316 µM,134 nM
same,IC50,second compound 0.1 µM,103 nM
same,IC50,second compound 0.316 µM,68.8 nM
same,IC50,second compound 1 µM,80.6 nM
same,IC50,second compound 3.16 µM,57.4 nM
same,IC50,second compound 10 µM,62.1 nM
same,"viability, T/C",[1],67.5%
same,"viability, T/C",[2],57.8%
same,"viability, T/C",[3],26.7%
same,"viability, T/C",[4],5.37%
same,"viability, T/C",[5],0.23%
same,"viability, T/C",[6],0.7%
same,"viability, T/C",[7],80.5%
same,"viability, T/C",[8],48.3%
same,"viability, T/C",[9],29.4%
same,"viability, T/C",[10],5.02%
same,"viability, T/C",[11],0.21%
same,"viability, T/C",[12],0.47%
same,"viability, T/C",[13],67.8%
same,"viability, T/C",[14],40%
same,"viability, T/C",[15],25%
same,"viability, T/C",[16],9.55%
same,"viability, T/C",[17],0.15%
same,"viability, T/C",[18],0.48%
same,"viability, T/C",[19],83.7%
same,"viability, T/C",[20],36.7%
same,"viability, T/C",[21],29.5%
same,"viability, T/C",[22],5.88%
same,"viability, T/C",[23],0.44%
same,"viability, T/C",[24],0.58%
same,"viability, T/C",[25],64.5%
same,"viability, T/C",[26],34.2%
same,"viability, T/C",[27],24.8%
same,"viability, T/C",[28],7.19%
same,"viability, T/C",[29],0.42%
same,"viability, T/C",[30],0.9%
same,"viability, T/C",[31],63.2%
same,"viability, T/C",[32],38.7%
same,"viability, T/C",[33],25.3%
same,"viability, T/C",[34],5.04%
same,"viability, T/C",[35],0.39%
same,"viability, T/C",[36],1.33%
COc1cccc(OCCCN)c1-c1cc(Nc2cnc(C#N)cn2)n[nH]1 + COC1C(OC(N)=O)C(O)C(Oc2ccc3c(O)c(NC(=O)c4ccc(O)c(CC=C(C)C)c4)c(=O)oc3c2C)OC1(C)C,IC50,second compound 0.0316 µM,28.7 nM
same,IC50,second compound 0.1 µM,35 nM
same,IC50,second compound 0.316 µM,39.4 nM
same,IC50,second compound 1 µM,30.5 nM
same,IC50,second compound 3.16 µM,27.6 nM
same,IC50,second compound 10 µM,22.2 nM
same,"viability, T/C",[37],105%
same,"viability, T/C",[38],77.3%
same,"viability, T/C",[1],51.3%
same,"viability, T/C",[2],20.1%
same,"viability, T/C",[3],13%
same,"viability, T/C",[4],10.6%
same,"viability, T/C",[39],107%
same,"viability, T/C",[40],96.6%
same,"viability, T/C",[7],51.9%
same,"viability, T/C",[8],20.7%
same,"viability, T/C",[9],12.7%
same,"viability, T/C",[10],9.49%
same,"viability, T/C",[41],97%
same,"viability, T/C",[42],80.6%
same,"viability, T/C",[13],60.2%
same,"viability, T/C",[14],18%
same,"viability, T/C",[15],10.6%
same,"viability, T/C",[16],9.85%
same,"viability, T/C",[43],106%
same,"viability, T/C",[44],90.1%
same,"viability, T/C",[19],47.6%
same,"viability, T/C",[20],21%
same,"viability, T/C",[21],12%
same,"viability, T/C",[22],9.09%
same,"viability, T/C",[45],89.5%
same,"viability, T/C",[46],79.8%
same,"viability, T/C",[25],45.8%
same,"viability, T/C",[26],18.4%
same,"viability, T/C",[27],12.5%
same,"viability, T/C",[28],9.13%
same,"viability, T/C",[47],103%
same,"viability, T/C",[48],83.1%
same,"viability, T/C",[31],35.1%
same,"viability, T/C",[32],15.2%
same,"viability, T/C",[33],11.4%
same,"viability, T/C",[34],9.97%
C=CCn1c(=O)c2cnc(Nc3ccc(N4CCN(C)CC4)cc3)nc2n1-c1cccc(C(C)(C)O)n1 + Cc1cccc(N(C)C(=O)C2C(O)CCN2c2nc(C)cc(C(F)(F)F)c2C#N)c1,IC50,second compound 0.0316 µM,> 1000 nM
same,IC50,second compound 0.1 µM,> 1000 nM
same,IC50,second compound 0.316 µM,> 1000 nM
same,IC50,second compound 1 µM,> 1000 nM
same,IC50,second compound 3.16 µM,> 1000 nM
same,IC50,second compound 10 µM,754 nM
same,"viability, T/C",[37],109%
same,"viability, T/C",[38],113%
same,"viability, T/C",[1],104%
same,"viability, T/C",[2],105%
same,"viability, T/C",[3],103%
same,"viability, T/C",[4],60.9%
same,"viability, T/C",[39],112%
same,"viability, T/C",[40],109%
same,"viability, T/C",[7],119%
same,"viability, T/C",[8],114%
same,"viability, T/C",[9],115%
same,"viability, T/C",[10],51.5%
same,"viability, T/C",[41],92.3%
same,"viability, T/C",[42],88.7%
same,"viability, T/C",[13],105%
same,"viability, T/C",[14],107%
same,"viability, T/C",[15],110%
same,"viability, T/C",[16],59.5%
same,"viability, T/C",[43],109%
same,"viability, T/C",[44],98.5%
same,"viability, T/C",[19],105%
same,"viability, T/C",[20],99%
same,"viability, T/C",[21],112%
same,"viability, T/C",[22],57.8%
same,"viability, T/C",[45],90.6%
same,"viability, T/C",[46],101%
same,"viability, T/C",[25],114%
same,"viability, T/C",[26],102%
same,"viability, T/C",[27],89.7%
same,"viability, T/C",[28],56.9%
same,"viability, T/C",[47],90.7%
same,"viability, T/C",[48],92.2%
same,"viability, T/C",[31],104%
same,"viability, T/C",[32],90.4%
same,"viability, T/C",[33],97%
same,"viability, T/C",[34],35.4%
CCCS(=O)(=O)Nc1ccc(F)c(C(=O)c2c[nH]c3ncc(-c4ccc(Cl)cc4)cc23)c1F + Nc1ccc(C#CCN(C(=O)Cc2ncc(C(F)(F)F)cc2C(F)(F)F)c2ccc(F)cc2)nn1,IC50,second compound 0.0316 µM,6670 nM
same,IC50,second compound 0.1 µM,6110 nM
same,IC50,second compound 0.316 µM,6900 nM
same,IC50,second compound 1 µM,6330 nM
same,IC50,second compound 3.16 µM,6270 nM
same,IC50,second compound 10 µM,6540 nM
same,"viability, T/C",[1],104%
same,"viability, T/C",[2],116%
same,"viability, T/C",[3],101%
same,"viability, T/C",[4],84.7%
same,"viability, T/C",[5],85.3%
same,"viability, T/C",[6],33.6%
same,"viability, T/C",[7],119%
same,"viability, T/C",[8],98.2%
same,"viability, T/C",[9],103%
same,"viability, T/C",[10],89.2%
same,"viability, T/C",[11],81.9%
same,"viability, T/C",[12],29%
same,"viability, T/C",[13],94.4%
same,"viability, T/C",[14],99.6%
same,"viability, T/C",[15],101%
same,"viability, T/C",[16],88.7%
same,"viability, T/C",[17],93.8%
same,"viability, T/C",[18],29.2%
same,"viability, T/C",[19],95.9%
same,"viability, T/C",[20],96.7%
same,"viability, T/C",[21],88.9%
same,"viability, T/C",[22],76.8%
same,"viability, T/C",[23],80.2%
same,"viability, T/C",[24],33%
same,"viability, T/C",[25],98.5%
same,"viability, T/C",[26],104%
same,"viability, T/C",[27],104%
same,"viability, T/C",[28],77.2%
same,"viability, T/C",[29],84%
same,"viability, T/C",[30],30.6%
same,"viability, T/C",[31],116%
same,"viability, T/C",[32],112%
same,"viability, T/C",[33],103%
same,"viability, T/C",[34],91.5%
same,"viability, T/C",[35],82.5%
same,"viability, T/C",[36],33.1%
